Test results: publication PMC5979480 (International Journal of Molecular Sciences, 2018)

Key:
[1] = system: 6-OHDA hemi-parkinsonian (PD) rats; assay: Apomorphine-induced contralateral rotation; format: in vivo, Sprague-Dawley rats
Experimental: (§1) Modified surgical procedures were based on our previously described methods. Under Zoletil-Rumpun (10 mg/kg: 2 mg/kg, i.p.) anesthesia, SD rats were placed in a stereotaxic frame with the nose bar positioned 3.3 mm below the interaural line. Unilateral 6-hydroxydopamine (6-OHDA, 8 μg dissolved in 0.9% saline with 0.02% ascorbic acid) was injected for DA lesions into the left median forebrain bundle (MFB, coordinates: anteroposterior [49, 53], −4.3 mm; lateral (L), 1.6 mm from bregma; ventral (V), 8.2 mm from the dura).
Apomorphine (0.5 mg/kg in 0.1% ascorbic acid, s.c.)-induced contralateral rotations were recorded using a digital video camera to count the number of rotations for 60 min at weekly intervals up to 4 weeks post-lesion (i.e., 7, 14, 21, and 28 days post-lesion) using the same test conditions. The net number of rotations was calculated (contralateral minus ipsilateral full turns). In unilaterally 6-OHDA lesioned animals, apomorphine-induced contralateral rotation is a well-established correlate of dopamine depletion, with rotation levels seen here indicative of an 80–90% loss.

[2] = system: 6-OHDA hemi-parkinsonian (PD) rats; assay: Open-field test (locomotor and anxiety-like behavior); format: in vivo, Sprague-Dawley rats; settings: 15 nmol/kg/day s.c. pump
Experimental: as §1
In addition to its well-known motor manifestations, PD is also known to elicit neuropsychiatric disorders such as anxiety. We thus used open field measurements in the lesioned animals, as well as in intact animals, to evaluate not only general motor activity but also anxiety-related exploratory activity. Rats were first habituated to an open field Plexiglas arena (60 × 60 × 100 cm) for 10 min at day 4 and 5 post-lesion. At day 6 post-lesion, locomotor activity and anxiety-like behavior were monitored for 10 min using open field tests. The rat behaviors were recorded using an EthoVision system. Total distance, velocity, and freezing times in the open-field were considered general locomotor activities. The number and retention times in the central zone of the open field were measured as anxiety-like behaviors. The center of the open field was defined as a 30 × 30 cm^2 in the geometric center of the arena.

[3] = system: TBI injury in rats; settings: 38.5 µg/kg/day GIP (equivalent to 7.8 nmol/kg/day); cited from earlier work
[4] = in vivo; cited from earlier work

| Molecule | Sensitization (progressive increase in apomorphine-induced rotations with repeated weekly tests) ([1]; 15 nmol/kg/day GIP, weekly tests up to 4 weeks post-lesion, time effect GIP p = 0.940) | Apomorphine-induced rotation, GIP vs saline ([1]; 15 nmol/kg/day s.c. pump for 2 weeks from 2 days pre-lesion, apomorphine 0.5 mg/kg s.c., 60 min, week 3 (p = 0.042) and week 4 (p = 0.019) post-6-OHDA, saline n = 9, GIP n = 10) | Initial levels of apomorphine-induced rotations ([1]; apomorphine 0.5 mg/kg, both lesioned groups (saline and GIP 15 nmol/kg/day)) | Open-field locomotor behavior (total distance moved, velocity, freezing time) ([2]; 10 min open field post-lesion, GIP vs saline p = 0.031, 0.021, 0.034, saline n = 8, GIP15 n = 5, naïve n = 6) | Number of entries into the central zone, GIP vs saline ([2]; 10 min open field, p = 0.008) | Retention times in the central zone, GIP vs saline ([2]; 10 min open field, p = 0.218) | Effect on TBI injury [3] | Share of plasma levels reaching the brain [4] [%] |
| --- | --- | --- | --- | --- | --- | --- | --- | --- |
| CC[C@H](C)[C@H](NC(=O)[C@H](CO)NC(=O)[C@H](Cc1ccc(O)cc1)NC(=O)[C@H](CC(=O)O)NC(=O)[C@H](CO)NC(=O)[C@@H](NC(=O)[C@H](Cc1ccccc1)NC(=O)[C@@H](NC(=O)CNC(=O)[C@H](CCC(=O)O)NC(=O)[C@H](C)NC(=O)[C@@H](N)Cc1ccc(O)cc1)[C@@H](C)O)[C@@H](C)CC)C(=O)N[C@@H](C)C(=O)N[C@@H](CCSC)C(=O)N[C@@H](CC(=O)O)C(=O)N[C@@H](CCCCN)C(=O)N[C@H](C(=O)N[C@@H](Cc1c[nH]cn1)C(=O)N[C@@H](CCC(N)=O)C(=O)N[C@@H](CCC(N)=O)C(=O)N[C@@H](CC(=O)O)C(=O)N[C@@H](Cc1ccccc1)C(=O)N[C@H](C(=O)N[C@@H](CC(N)=O)C(=O)N[C@@H](Cc1c[nH]c2ccccc12)C(=O)N[C@@H](CC(C)C)C(=O)N[C@@H](CC(C)C)C(=O)N[C@@H](C)C(=O)N[C@@H](CCC(N)=O)C(=O)N[C@@H](CCCCN)C(=O)NCC(=O)N[C@@H](CCCCN)C(=O)N[C@@H](CCCCN)C(=O)N[C@@H](CC(N)=O)C(=O)N[C@@H](CC(=O)O)C(=O)N[C@@H](Cc1c[nH]c2ccccc12)C(=O)N[C@@H](CCCCN)C(=O)N[C@@H](Cc1c[nH]cn1)C(=O)N[C@@H](CC(N)=O)C(=O)N[C@H](C(=O)N[C@H](C(=O)N[C@@H](CCC(N)=O)C(=O)O)[C@@H](C)O)[C@@H](C)CC)C(C)C)[C@@H](C)CC [GIP, glucose-dependent insulinotropic polypeptide] | not seen | statistically significant differences | over 400 | improved locomotor behavior to a level similar to the naïve group | significantly higher | trended to improve this deficit | effectively mitigated TBI injury |  |
| Exenatide |  |  |  |  |  |  |  | ~2 |
